Measured values reported in patent publication US6140368A, “Naphthols useful in antiviral methods” (The Regents of the University of California, priority 1998, dated 2000).

Target: HIV reverse transcriptase (Human immunodeficiency virus type 1 group M subtype B, UniProt P03366)
Test: Reverse transcriptase scintillation proximity assay (Example 4, Table 2)
Format: biochemical
Conditions: 10 μM inhibitor; relative to dimethyl sulfoxide = 100%; 3 min, 10 µM
Procedure: Reverse transcriptase ("RT") activity is measured using a scintillation proximity assay kit available from Amersham Life Sciences, Inc., which uses a biotin/streptavidin bead capture system. RNA-dependent polymerase activity is measured using purified […] and a synthetic 17mer/50mer RNA-DNA template-primer containing biotin at the 5' end of the DNA. The template-primer, buffer, dNTP, and inhibitor are incubated for 10 minutes at 37° C. before the RT is added. The final 100 μl reaction mixture contains: 39 nm of template primer, buffer (40 mM tris HCl at pH 8.0, 10 mM MgCl2, 60 mM KCl, 10 mM dithiothreitol); 75 nM of each dNTP except dTTP; 25 nM dTTP and 35 nM tritium labeled d*TTP; 10 μM inhibitor; and 1.0-2.0 μg of RT. After three minute incubation, the reaction is quenched with 40 μl of 0.56M EDTA. Then 10 μl of streptavidin SPA beads (in suspension) are added and incubated at 37° C. for 10 minutes. Finally, 850 μl of a buffer containing 10 mM Tris HCl pH 7.4 and 0.15M NaCl is added. The signal is produced by biotinylated polymers incorporating d*TTP binding to the streptavidin beads which stimulate the scintillant. The amount of d*TTP incorporated in the polymer is measured with a scintillation counter.
Compounds showing good inhibition will give a low number of counts/min (cpm). This number is related to a standard, dimethyl sulfoxide, which is given an arbitrary 100% relative activity. All cpm data in a single run are given a percent of this standard.

Q: Which “% RT activity remaining at 10 μM” value does the source give for `O=C(O)c1ccc(N=Nc2c(S(=O)(=O)O)cc3cc(NC(=O)c4ccc(C(=O)Nc5ccc6c(O)c(N=Nc7ccc(C(=O)O)cc7)c(S(=O)(=O)O)cc6c5)cc4)ccc3c2O)cc1` [Compound 162] here?
A: 5.9%

Same assay, conditions: 0.05 h, 10 μM inhibitor; relative to dimethyl sulfoxide = 100%; read-out: % RT activity remaining at 10 μM

Q: Which remaining activity at 10 µM does the source give for `O=C(O)CCc1ccc(N=Nc2c(S(=O)(=O)O)cc3cc(NC(=O)c4cc(=O)cc(C(=O)Nc5ccc6c(O)c(N=Nc7ccc(CCC(=O)O)cc7)c(S(=O)(=O)O)cc6c5)o4)ccc3c2O)cc1` [Compound 134] here?
A: 0.25%

Q: `O=C(Nc1ccc2ccc(S(=O)(=O)O)cc2c1)Nc1ccc2c(O)cc(S(=O)(=O)O)cc2c1` [Compound 7] was tested. Which remaining activity at 10 µM did it give?
A: 78%

Q: `O=C(O)/C=C/c1ccc(N=Nc2c(S(=O)(=O)O)cc3cc(NC(=O)c4cc(O)cc(C(=O)Nc5ccc6c(O)c(N=Nc7ccc(/C=C/C(=O)O)cc7)c(S(=O)(=O)O)cc6c5)n4)ccc3c2O)cc1` [Compound 151] was tested. Which remaining activity at 10 µM did it give?
A: 0.2%

Q: `O=C(Nc1ccc2c(c1)C(=O)c1ccccc1C2=O)Nc1ccc2c(O)cc(S(=O)(=O)O)cc2c1` [Compound 15] was tested. Which remaining activity at 10 µM did it give?
A: 88%

Q: Which remaining activity at 10 µM does the source give for `O=C(Nc1ccc2c(O)c(N=Nc3ccc(Br)cc3Br)c(S(=O)(=O)O)cc2c1)c1ccc(C(=O)Nc2ccc3c(O)c(N=Nc4ccc(Br)cc4Br)c(S(=O)(=O)O)cc3c2)cc1` [Compound 182] here?
A: 35%

Q: For `O=C(Nc1ccc2c(O)cc(S(=O)(=O)O)cc2c1)Nc1ccc2cc(S(=O)(=O)O)cc(S(=O)(=O)O)c2c1` [Compound 8], which remaining activity at 10 µM is on record?
A: 83%

Q: How did the remaining activity at 10 µM turn out when `O=C(O)CCc1ccc(N=Nc2c(S(=O)(=O)O)cc3cc(NC(=O)c4cccc(C(=O)Nc5ccc6c(O)c(N=Nc7ccc(CCC(=O)O)cc7)c(S(=O)(=O)O)cc6c5)n4)ccc3c2O)cc1` [Compound 120] was run?
A: 0.21%

Q: How did the remaining activity at 10 µM turn out when `O=C(O)/C=C/c1ccc(N=Nc2c(S(=O)(=O)O)cc3cc(NC(=O)c4ccc(C(=O)Nc5ccc6c(O)c(N=Nc7ccc(/C=C/C(=O)O)cc7)c(S(=O)(=O)O)cc6c5)cc4)ccc3c2O)cc1` [Compound 161] was run?
A: 25%

Q: Which remaining activity at 10 µM does the source give for `O=C(Nc1ccc2c(O)cc(S(=O)(=O)O)cc2c1)Nc1ccc2cc(S(=O)(=O)O)cc(O)c2c1` [Compound 9] here?
A: 75%

Q: With `O=C(O)CCCCCc1ccc(N=Nc2c(S(=O)(=O)O)cc3cc(NC(=O)c4cccc(C(=O)Nc5ccc6c(O)c(N=Nc7ccc(CCCCCC(=O)O)cc7)c(S(=O)(=O)O)cc6c5)n4)ccc3c2O)cc1` [Compound 121] as the compound, how does the remaining activity at 10 µM read?
A: 0.16%

Q: How did the remaining activity at 10 µM turn out when `O=C(O)CCCCCc1ccc(N=Nc2c(S(=O)(=O)O)cc3cc(NC(=O)c4cc(=O)cc(C(=O)Nc5ccc6c(O)c(N=Nc7ccc(CCCCCC(=O)O)cc7)c(S(=O)(=O)O)cc6c5)o4)ccc3c2O)cc1` [Compound 135] was run?
A: 0.16%

Q: For `O=C(O)c1ccc(N=Nc2c(S(=O)(=O)O)cc3cc(NC(=O)c4cccc(C(=O)Nc5ccc6c(O)c(N=Nc7ccc(C(=O)O)cc7)c(S(=O)(=O)O)cc6c5)n4)ccc3c2O)cc1` [Compound 118], which remaining activity at 10 µM is on record?
A: 0.25%

Q: For `O=C(O)CCCc1ccc(N=Nc2c(S(=O)(=O)O)cc3cc(NC(=O)c4ccc(C(=O)Nc5ccc6c(O)c(N=Nc7ccc(CCCC(=O)O)cc7)c(S(=O)(=O)O)cc6c5)cc4)ccc3c2O)cc1` [Compound 165], which remaining activity at 10 µM is on record?
A: 3.7%

Q: `Cc1cc(C(=O)O)ccc1N=Nc1c(S(=O)(=O)O)cc2cc(Nc3c(Nc4ccc5c(O)c(N=Nc6ccc(C(=O)O)cc6C)c(S(=O)(=O)O)cc5c4)c(=O)c3=O)ccc2c1O` [Compound 192] was tested. Which remaining activity at 10 µM did it give?
A: 0.3%

Q: Which remaining activity at 10 µM does the source give for `CC(=O)Nc1ccc2c(OC(C)=O)cc(S(=O)(=O)O)cc2c1` [Compound 22] here?
A: 100%

Q: With `CCOC(=O)c1ccc(N=Nc2c(S(=O)(=O)O)cc3cc(NC(=O)Nc4ccc5c(O)c(N=Nc6ccc(C(=O)OCC)cc6)c(S(=O)(=O)O)cc5c4)ccc3c2O)cc1` [Compound 44] as the compound, how does the remaining activity at 10 µM read?
A: 19%

Q: With `COC(=O)C(Cc1c[nH]c2ccccc12)NC(=O)Nc1ccc2c(O)cc(S(=O)(=O)O)cc2c1` (centres unmarked) [Compound 17] as the compound, how does the remaining activity at 10 µM read?
A: 82%

Q: For `O=C(Nc1ccc2c(O)cc(S(=O)(=O)O)cc2c1)c1cc(O)cc(C(=O)Nc2ccc3c(O)cc(S(=O)(=O)O)cc3c2)n1` [Compound 145], which remaining activity at 10 µM is on record?
A: 47%

Q: With `O=C(Nc1ccc2c(S(=O)(=O)O)cccc2c1)Nc1ccc2c(S(=O)(=O)O)cccc2c1` [Compound 81] as the compound, how does the remaining activity at 10 µM read?
A: 78%

Q: How did the remaining activity at 10 µM turn out when `O=C(Nc1ccc2c(O)cc(S(=O)(=O)O)cc2c1)Nc1cccc2c(=O)[nH][nH]c(=O)c12` [Compound 16] was run?
A: 81%

Q: With `O=C(Nc1ccc2c(O)cc(S(=O)(=O)O)cc2c1)Nc1cccc2ccc(S(=O)(=O)O)cc12` [Compound 10] as the compound, how does the remaining activity at 10 µM read?
A: 88%

Q: How did the remaining activity at 10 µM turn out when `COC(=O)c1cc(NC(=O)Nc2ccc3c4c(cccc24)C(=O)OC3=O)cc(C(=O)OC)c1` [Compound 83] was run?
A: 77%

Q: `O=C(O)CC(C(=O)O)c1ccc(N=Nc2c(S(=O)(=O)O)cc3cc(NC(=O)c4ccc(C(=O)Nc5ccc6c(O)c(N=Nc7ccc(C(CC(=O)O)C(=O)O)cc7)c(S(=O)(=O)O)cc6c5)cc4)ccc3c2O)cc1` (centres unmarked) [Compound 166] was tested. Which remaining activity at 10 µM did it give?
A: 0.14%

Q: For `COc1ccc(N=Nc2c(S(=O)(=O)O)cc3cc(NC(=O)c4ccc(C(=O)Nc5ccc6c(O)c(N=Nc7ccc(OC)cc7)c(S(=O)(=O)O)cc6c5)cc4)ccc3c2O)cc1` [Compound 176], which remaining activity at 10 µM is on record?
A: 60%

Q: With `O=C(O)c1ccc(C(=O)O)c(N=Nc2c(S(=O)(=O)O)cc3cc(NC(=O)c4ccc(C(=O)Nc5ccc6c(O)c(N=Nc7cc(C(=O)O)ccc7C(=O)O)c(S(=O)(=O)O)cc6c5)cc4)ccc3c2O)c1` [Compound 173] as the compound, how does the remaining activity at 10 µM read?
A: 27%

Q: Which remaining activity at 10 µM does the source give for `O=C(O)c1cc(N=Nc2c(S(=O)(=O)O)cc3cc(NC(=O)c4ccc(C(=O)Nc5ccc6c(O)c(N=Nc7cc(C(=O)O)cc(C(=O)O)c7)c(S(=O)(=O)O)cc6c5)cc4)ccc3c2O)cc(C(=O)O)c1` [Compound 178] here?
A: 91%

Q: Which remaining activity at 10 µM does the source give for `O=C(O)/C=C/c1ccc(N=Nc2c(S(=O)(=O)O)cc3cc(Nc4c(Nc5ccc6c(O)c(N=Nc7ccc(/C=C/C(=O)O)cc7)c(S(=O)(=O)O)cc6c5)c(=O)c4=O)ccc3c2O)cc1` [Compound 185] here?
A: 0.6%

Q: How did the remaining activity at 10 µM turn out when `O=C(O)Cc1ccc(N=Nc2c(S(=O)(=O)O)cc3cc(NC(=O)c4cc(=O)cc(C(=O)Nc5ccc6c(O)c(N=Nc7ccc(CC(=O)O)cc7)c(S(=O)(=O)O)cc6c5)o4)ccc3c2O)cc1` [Compound 133] was run?
A: 0.4%

Q: How did the remaining activity at 10 µM turn out when `COC(=O)c1cc(NC(=O)Nc2ccc3cc(S(=O)(=O)O)cc(O)c3c2)cc(C(=O)OC)c1` [Compound 27] was run?
A: 80%

Q: With `O=C(O)CCc1ccc(N=Nc2c(S(=O)(=O)O)cc3cc(NC(=O)c4ccc(C(=O)Nc5ccc6c(O)c(N=Nc7ccc(CCC(=O)O)cc7)c(S(=O)(=O)O)cc6c5)cc4)ccc3c2O)cc1` [Compound 164] as the compound, how does the remaining activity at 10 µM read?
A: 0.15%

Q: Which remaining activity at 10 µM does the source give for `CCOC(=O)c1ccc(NC(=O)Nc2ccc3c(O)cc(S(=O)(=O)O)cc3c2)cc1` [Compound 25] here?
A: 86%

Q: For `O=C(Nc1ccc(S(=O)(=O)O)c2ccccc12)Nc1ccc(S(=O)(=O)O)c2ccccc12` [Compound 79], which remaining activity at 10 µM is on record?
A: 78%

Q: `O=C(O)c1ccc(Cl)c(N=Nc2c(S(=O)(=O)O)cc3cc(NC(=O)c4ccc(C(=O)Nc5ccc6c(O)c(N=Nc7cc(C(=O)O)ccc7Cl)c(S(=O)(=O)O)cc6c5)cc4)ccc3c2O)c1` [Compound 172] was tested. Which remaining activity at 10 µM did it give?
A: 0.08%

Q: Which remaining activity at 10 µM does the source give for `COc1cc(N=Nc2c(S(=O)(=O)O)cc3cc(NC(=O)c4cc(O)cc(C(=O)Nc5ccc6c(O)c(N=Nc7cc(OC)c(OC)c(OC)c7C(=O)O)c(S(=O)(=O)O)cc6c5)n4)ccc3c2O)c(C(=O)O)c(OC)c1OC` [Compound 156] here?
A: 15%

Q: Which remaining activity at 10 µM does the source give for `COC(=O)c1cc(NC(=O)Nc2ccc3c(S(=O)(=O)O)cc(S(=O)(=O)O)cc3c2)cc(C(=O)OC)c1` [Compound 26] here?
A: 88%

Q: Which remaining activity at 10 µM does the source give for `COc1cc(N=Nc2c(S(=O)(=O)O)cc3cc(NC(=O)c4ccc(C(=O)Nc5ccc6c(O)c(N=Nc7cc(OC)c(OC)cc7C(=O)O)c(S(=O)(=O)O)cc6c5)cc4)ccc3c2O)c(C(=O)O)cc1OC` [Compound 179] here?
A: 7.5%

Q: How did the remaining activity at 10 µM turn out when `O=C(O)CCc1ccc(N=Nc2c(S(=O)(=O)O)cc3cc(Nc4c(Nc5ccc6c(O)c(N=Nc7ccc(CCC(=O)O)cc7)c(S(=O)(=O)O)cc6c5)c(=O)c4=O)ccc3c2O)cc1` [Compound 188] was run?
A: 0.3%

Q: Which remaining activity at 10 µM does the source give for `COc1cc(C(=O)O)ccc1N=Nc1c(S(=O)(=O)O)cc2cc(NC(=O)c3cc(O)cc(C(=O)Nc4ccc5c(O)c(N=Nc6ccc(C(=O)O)cc6OC)c(S(=O)(=O)O)cc5c4)n3)ccc2c1O` [Compound 153] here?
A: 0.15%

Q: For `Nc1cccc2c(NC(=O)Nc3ccc4c(O)cc(S(=O)(=O)O)cc4c3)cccc12` [Compound 19], which remaining activity at 10 µM is on record?
A: 80%

Q: `COC(=O)c1ccccc1NC(=O)Nc1ccc2cc(S(=O)(=O)O)cc(O)c2c1` [Compound 24] was tested. Which remaining activity at 10 µM did it give?
A: 90%

Same assay, conditions: 0.05 h, read-out: % RT activity remaining at 10 μM

Q: Which remaining activity at 10 µM does the source give for `O=C(NC(=O)Oc1ccccc1)Nc1ccc2cc(S(=O)(=O)O)cc(O)c2c1` [Compound 30] here?
A: 87%

Same assay, conditions: read-out: IC50 (RT activity)

Q: With `O=C(Nc1ccc2c(O)c(N=Nc3ccc(-c4nnn[nH]4)cc3)c(S(=O)(=O)O)cc2c1)Nc1ccc2c(O)c(N=Nc3ccc(-c4nnn[nH]4)cc3)c(S(=O)(=O)O)cc2c1` [Compound 159] as the compound, how does the IC50 read?
A: 220 nM

Q: `O=C(O)/C=C/c1ccc(N=Nc2c(S(=O)(=O)O)cc3ccc(NC(=O)Nc4ccc5cc(S(=O)(=O)O)c(N=Nc6ccc(/C=C/C(=O)O)cc6)c(O)c5c4)cc3c2O)cc1` [Compound 86] was tested. Which IC50 did it give?
A: 1200 nM
